ChEMBL document CHEMBL4130471, “Design and synthesis of tranylcypromine derivatives as novel LSD1/HDACs dual inhibitors for cancer treatment” (Eur J Med Chem, 2017)

Assays:
PC-3 = assay: cells; type: functional, cell-based; settings: Homo sapiens, PC-3, 72 h
Description: Antiproliferative activity against human PC3 cells incubated for 72 hrs by MTT assay

SW-620 = assay: cells; type: functional, cell-based; settings: Homo sapiens, SW-620, 72 h
Description: Antiproliferative activity against human SW620 cells incubated for 72 hrs by MTT assay

MCF7 = assay: cells; type: functional, cell-based; settings: Homo sapiens, MCF7, 72 h
Description: Antiproliferative activity against human MCF7 cells incubated for 72 hrs by MTT assay

MGC-803 = assay: cells; type: functional, cell-based; settings: Homo sapiens, MGC-803, 72 h
Description: Antiproliferative activity against human MGC803 cells incubated for 72 hrs by MTT assay

[1] = molecular target: T1, Amine oxidase [flavin-containing] B (Homo sapiens, UniProt P27338)
T1 sequence (P27338 whole entry): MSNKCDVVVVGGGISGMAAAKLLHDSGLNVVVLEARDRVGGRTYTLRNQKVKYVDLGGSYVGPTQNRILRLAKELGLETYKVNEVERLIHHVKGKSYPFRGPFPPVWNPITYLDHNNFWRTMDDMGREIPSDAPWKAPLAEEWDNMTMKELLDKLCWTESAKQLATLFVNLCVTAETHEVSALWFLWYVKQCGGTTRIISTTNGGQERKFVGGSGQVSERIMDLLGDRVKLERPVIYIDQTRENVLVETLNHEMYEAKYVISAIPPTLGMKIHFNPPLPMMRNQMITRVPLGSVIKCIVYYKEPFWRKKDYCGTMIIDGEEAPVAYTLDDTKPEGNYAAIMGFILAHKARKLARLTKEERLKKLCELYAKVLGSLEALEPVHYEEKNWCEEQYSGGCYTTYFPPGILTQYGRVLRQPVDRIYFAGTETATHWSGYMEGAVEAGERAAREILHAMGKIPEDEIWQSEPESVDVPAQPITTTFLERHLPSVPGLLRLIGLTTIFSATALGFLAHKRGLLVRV
Description: Inhibition of MAOB (unknown origin) using beetle luciferin as substrate by MAO-Glo assay

Histone deacetylase 1 = Histone deacetylase 1 (Homo sapiens, UniProt Q13547); assay: Inhibition of C-terminal His-tagged and C-terminal FLAG-tagged human HDAC1 expressed in baculovirus expression system using Ac-peptide substrate incubated for 15 mins by fluorescence based assay
Histone deacetylase 2 = Histone deacetylase 2 (Homo sapiens, UniProt Q92769)
Description: Inhibition of C-terminal His-tagged full length human HDAC2 expressed in baculovirus expression system using Ac-peptide substrate incubated for 15 mins by fluorescence based assay

Histone deacetylase 5 = Histone deacetylase 5 (Homo sapiens, UniProt Q9UQL6); assay: Inhibition of C-terminal His-tagged human HDAC5 (656-1122 residues) expressed in baculovirus expression system using Ac-peptide substrate incubated for 15 mins by fluorescence based assay
A549 = assay: cells; type: functional, cell-based; settings: Homo sapiens, A549, 72 h
Description: Antiproliferative activity against human A549 cells incubated for 72 hrs by MTT assay

[2] = molecular target: Lysine-specific histone demethylase 1A (Homo sapiens, UniProt O60341)
Description: Inhibition of recombinant LSD1 (157 to 852 amino acids) (unknown origin) expressed in Escherichia coli BL21(DE) using H3K4me2 substrate by amplex red and horseradish peroxidase based fluorescence assay

[3] = molecular target: T2, Amine oxidase [flavin-containing] A (Homo sapiens, UniProt P21397)
T2 sequence (P21397 whole entry): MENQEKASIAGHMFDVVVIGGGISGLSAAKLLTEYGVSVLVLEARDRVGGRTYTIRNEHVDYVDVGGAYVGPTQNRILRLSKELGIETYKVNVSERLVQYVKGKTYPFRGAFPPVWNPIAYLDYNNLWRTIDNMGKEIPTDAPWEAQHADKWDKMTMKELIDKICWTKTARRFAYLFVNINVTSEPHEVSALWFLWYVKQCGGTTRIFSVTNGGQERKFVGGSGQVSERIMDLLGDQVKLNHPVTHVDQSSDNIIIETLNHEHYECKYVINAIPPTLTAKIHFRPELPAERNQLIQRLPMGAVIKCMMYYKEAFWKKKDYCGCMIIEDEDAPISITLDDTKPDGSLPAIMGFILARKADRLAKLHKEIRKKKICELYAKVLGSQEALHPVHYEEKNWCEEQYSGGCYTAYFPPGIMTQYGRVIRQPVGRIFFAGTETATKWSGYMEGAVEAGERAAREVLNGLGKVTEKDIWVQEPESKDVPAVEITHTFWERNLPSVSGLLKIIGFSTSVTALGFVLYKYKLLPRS
Description: Inhibition of MAOA (unknown origin) using beetle luciferin as substrate by MAO-Glo assay

Chain of Histone deacetylase 5 (Q9UQL6 whole entry, the tested form may be a part): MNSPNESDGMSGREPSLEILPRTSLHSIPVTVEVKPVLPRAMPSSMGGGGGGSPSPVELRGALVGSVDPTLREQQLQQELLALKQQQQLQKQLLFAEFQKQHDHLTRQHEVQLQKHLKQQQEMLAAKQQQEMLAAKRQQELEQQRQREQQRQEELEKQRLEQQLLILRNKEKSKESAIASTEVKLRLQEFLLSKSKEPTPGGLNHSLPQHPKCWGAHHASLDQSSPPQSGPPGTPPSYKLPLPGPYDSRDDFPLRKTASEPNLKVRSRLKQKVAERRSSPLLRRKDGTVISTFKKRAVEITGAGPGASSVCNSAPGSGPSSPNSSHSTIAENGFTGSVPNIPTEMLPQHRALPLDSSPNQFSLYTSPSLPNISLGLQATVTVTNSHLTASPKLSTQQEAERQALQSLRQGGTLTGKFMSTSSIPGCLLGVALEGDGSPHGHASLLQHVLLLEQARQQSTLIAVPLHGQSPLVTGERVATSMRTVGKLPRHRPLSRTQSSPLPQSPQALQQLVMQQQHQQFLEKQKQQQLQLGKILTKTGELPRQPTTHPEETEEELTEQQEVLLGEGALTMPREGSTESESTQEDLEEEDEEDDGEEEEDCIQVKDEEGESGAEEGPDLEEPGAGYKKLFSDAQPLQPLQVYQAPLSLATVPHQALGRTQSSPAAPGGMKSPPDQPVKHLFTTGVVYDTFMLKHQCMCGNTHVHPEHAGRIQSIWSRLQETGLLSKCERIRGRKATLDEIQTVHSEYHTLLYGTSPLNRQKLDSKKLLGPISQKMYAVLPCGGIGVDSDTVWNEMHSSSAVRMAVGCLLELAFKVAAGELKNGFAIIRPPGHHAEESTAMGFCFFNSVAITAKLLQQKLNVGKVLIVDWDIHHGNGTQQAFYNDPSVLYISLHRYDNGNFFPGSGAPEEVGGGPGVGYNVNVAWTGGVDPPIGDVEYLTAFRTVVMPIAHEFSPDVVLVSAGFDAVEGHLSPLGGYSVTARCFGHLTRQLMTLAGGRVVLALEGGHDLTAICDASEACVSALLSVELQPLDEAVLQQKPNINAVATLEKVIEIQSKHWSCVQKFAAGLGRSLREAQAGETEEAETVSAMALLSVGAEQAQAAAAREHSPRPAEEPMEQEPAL
Chain of Histone deacetylase 1 (Q13547 whole entry): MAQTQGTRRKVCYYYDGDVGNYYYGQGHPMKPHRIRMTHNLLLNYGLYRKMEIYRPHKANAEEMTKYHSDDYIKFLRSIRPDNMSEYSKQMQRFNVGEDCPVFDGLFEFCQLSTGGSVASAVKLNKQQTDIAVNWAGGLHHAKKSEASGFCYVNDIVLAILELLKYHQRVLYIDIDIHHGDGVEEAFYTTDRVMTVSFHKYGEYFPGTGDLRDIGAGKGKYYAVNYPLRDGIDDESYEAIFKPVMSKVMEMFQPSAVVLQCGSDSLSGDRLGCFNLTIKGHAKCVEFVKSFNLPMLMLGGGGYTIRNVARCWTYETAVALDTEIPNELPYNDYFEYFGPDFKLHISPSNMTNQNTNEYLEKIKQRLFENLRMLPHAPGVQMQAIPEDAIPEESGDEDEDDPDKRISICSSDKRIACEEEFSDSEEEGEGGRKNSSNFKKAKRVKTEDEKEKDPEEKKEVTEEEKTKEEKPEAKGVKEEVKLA
Chain of Histone deacetylase 2 (Q92769 whole entry, the tested form may be a part): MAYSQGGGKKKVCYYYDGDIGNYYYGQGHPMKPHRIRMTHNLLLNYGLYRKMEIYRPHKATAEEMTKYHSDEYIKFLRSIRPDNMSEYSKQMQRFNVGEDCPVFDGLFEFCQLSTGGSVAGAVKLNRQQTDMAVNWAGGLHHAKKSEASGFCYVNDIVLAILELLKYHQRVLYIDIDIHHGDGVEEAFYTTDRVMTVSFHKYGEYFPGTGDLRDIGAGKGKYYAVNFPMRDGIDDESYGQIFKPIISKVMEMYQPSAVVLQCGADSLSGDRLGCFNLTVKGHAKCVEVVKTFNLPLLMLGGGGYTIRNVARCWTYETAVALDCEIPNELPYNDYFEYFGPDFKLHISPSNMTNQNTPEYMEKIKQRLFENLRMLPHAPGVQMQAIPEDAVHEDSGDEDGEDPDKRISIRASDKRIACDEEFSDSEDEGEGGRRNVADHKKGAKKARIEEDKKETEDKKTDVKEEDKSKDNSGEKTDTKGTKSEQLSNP

| Compound | IC50 (PC-3) | IC50 (SW-620) | IC50 (MCF7) | IC50 (MGC-803) | IC50 [1] | IC50 (Histone deacetylase 1) | IC50 (Histone deacetylase 2) | IC50 (Histone deacetylase 5; read-out: IC50) | IC50 (A549) | IC50 [2] | IC50 [3] | IC50 (Histone deacetylase 5) |
| --- | --- | --- | --- | --- | --- | --- | --- | --- | --- | --- | --- | --- |
| O=C(/C=C/c1ccc(CNC2CC2c2ccccc2)cc1)NO (stereo not drawn) | 5.62 µM | 4.03 µM | 6.24 µM | 2.46 µM | > 100 µM | 0.012 µM | 0.025 µM | 2.97 µM | 1.41 µM | 2.21 µM | 39.4 µM | – |
| Nc1ccccc1NC(=O)c1ccc(CNC2CC2c2ccccc2)cc1 (stereo not drawn) | 21.7 µM | > 32 µM | 19.5 µM | 21.5 µM | > 100 µM | 0.218 µM | 0.413 µM | – | 5.36 µM | 7.16 µM | 50.1 µM | Not Active |
| Nc1ccccc1NC(=O)/C=C/c1ccc(CNC2CC2c2ccccc2)cc1 (stereo not drawn) | 11.6 µM | 26.9 µM | 22.1 µM | 13.6 µM | > 100 µM | 0.314 µM | 0.491 µM | – | 3.17 µM | 3.85 µM | 36.9 µM | Not Active |
